Test results as given in the NIST ThermoML archive (doi:10.1016/j.fluid.2016.02.004).
Numbers after ± are expanded uncertainties.

Experiment: activity coefficient (dimensionless); of the first substance listed, at infinite dilution; xn = mol fraction of the nth substance listed
Conditions: Liquid, Chromatography, x1 = 0

SMILES | activity coefficient (318.15 K) | activity coefficient (328.15 K) | activity coefficient (338.15 K) | activity coefficient (348.15 K) | activity coefficient (358.15 K) | activity coefficient (368.15 K)
C=CCCC [1-pentene] + CCCCn1cc[n+](C)c1.N#CN=C=[N-] | 17.3 ± 1.2 | 17.3 ± 1.2 | 17.3 ± 1.2 | 17.3 ± 1.2 | 17.3 ± 1.2 | 17.3 ± 1.2
CCCc1ccccc1 [propylbenzene] + CCCCn1cc[n+](C)c1.N#CN=C=[N-] | 7.36 ± 0.5 | 7.57 ± 0.52 | 7.78 ± 0.53 | 7.98 ± 0.54 | 8.15 ± 0.56 | 8.35 ± 0.57
CCOC(C)=O [ethyl acetate] + CCCCn1cc[n+](C)c1.N#CN=C=[N-] | 2.57 ± 0.17 | 2.68 ± 0.18 | 2.79 ± 0.19 | 2.91 ± 0.2 | 3 ± 0.2 | 3.11 ± 0.21
CCC(C)O (configuration not stated) [butan-2-ol] + CCCCn1cc[n+](C)c1.N#CN=C=[N-] | 1.13 ± 0.07 | 1.14 ± 0.07 | 1.16 ± 0.07 | 1.17 ± 0.07 | 1.18 ± 0.08 | 1.19 ± 0.08
CCC(C)CC [3-methylpentane] + CCCCn1cc[n+](C)c1.N#CN=C=[N-] | 53.7 ± 3.7 | 51.7 ± 3.5 | 50 ± 3.4 | 48.4 ± 3.3 | 47.1 ± 3.2 | 45.6 ± 3.1
C1=CCCCC1 [cyclohexene] + CCCCn1cc[n+](C)c1.N#CN=C=[N-] | 11.4 ± 0.8 | 11.4 ± 0.8 | 11.3 ± 0.8 | 11.3 ± 0.8 | 11.3 ± 0.8 | 11.3 ± 0.8
CCC(C)(C)C [2,2-dimethylbutane] + CCCCn1cc[n+](C)c1.N#CN=C=[N-] | 53.6 ± 3.7 | 51.7 ± 3.5 | 50.1 ± 3.4 | 48.7 ± 3.3 | 47.4 ± 3.2 | 46 ± 3.1
O [water] + CCCCn1cc[n+](C)c1.N#CN=C=[N-] | 0.31 ± 0.03 | 0.323 ± 0.032 | 0.336 ± 0.032 | 0.349 ± 0.032 | 0.363 ± 0.033 | 0.376 ± 0.033
CCCO [propan-1-ol] + CCCCn1cc[n+](C)c1.N#CN=C=[N-] | 0.826 ± 0.053 | 0.835 ± 0.054 | 0.844 ± 0.054 | 0.853 ± 0.055 | 0.862 ± 0.055 | 0.871 ± 0.056
COC(C)(C)C [2-methoxy-2-methylpropane] + CCCCn1cc[n+](C)c1.N#CN=C=[N-] | 7.13 ± 0.49 | 7.47 ± 0.51 | 7.8 ± 0.53 | 8.14 ± 0.56 | 8.46 ± 0.58 | 8.8 ± 0.6
CCOCC [diethyl ether] + CCCCn1cc[n+](C)c1.N#CN=C=[N-] | 6.88 ± 0.47 | 7.11 ± 0.48 | 7.32 ± 0.5 | 7.53 ± 0.51 | 7.74 ± 0.53 | 7.95 ± 0.54
c1ccncc1 [pyridine] + CCCCn1cc[n+](C)c1.N#CN=C=[N-] | 0.845 ± 0.054 | 0.89 ± 0.06 | 0.94 ± 0.059 | 0.985 ± 0.062 | 1.03 ± 0.06 | 1.08 ± 0.07
CCc1ccccc1 [ethylbenzene] + CCCCn1cc[n+](C)c1.N#CN=C=[N-] | 4.78 ± 0.33 | 4.89 ± 0.33 | 5.07 ± 0.35 | 5.19 ± 0.35 | 5.33 ± 0.36 | 5.55 ± 0.38
CC(C)c1ccccc1 [isopropylbenzene] + CCCCn1cc[n+](C)c1.N#CN=C=[N-] | 7.3 ± 0.5 | 7.52 ± 0.51 | 7.72 ± 0.53 | 7.93 ± 0.54 | 8.11 ± 0.55 | 8.3 ± 0.6
C=C(C)c1ccccc1 [(1-methylethenyl)benzene] + CCCCn1cc[n+](C)c1.N#CN=C=[N-] | 3.3 ± 0.2 | 3.53 ± 0.24 | 3.79 ± 0.26 | 4.02 ± 0.27 | 4.26 ± 0.29 | 4.51 ± 0.31
CC(C)OC(C)C [diisopropyl ether] + CCCCn1cc[n+](C)c1.N#CN=C=[N-] | 20.6 ± 1.4 | 20.9 ± 1.4 | 21.2 ± 1.4 | 21.5 ± 1.5 | 21.8 ± 1.5 | 22 ± 1.5
CC(C)O [propan-2-ol] + CCCCn1cc[n+](C)c1.N#CN=C=[N-] | 0.921 ± 0.058 | 0.93 ± 0.059 | 0.94 ± 0.059 | 0.948 ± 0.06 | 0.956 ± 0.06 | 0.963 ± 0.061

Further lines, results first:

activity coefficient (318.15 K) | activity coefficient (328.15 K) | activity coefficient (338.15 K) | activity coefficient (348.15 K) | activity coefficient (358.15 K) | activity coefficient (368.15 K) | SMILES
12.5 ± 0.9 | 13 ± 0.9 | 13.4 ± 0.9 | 13.9 ± 1 | 14.4 ± 1 | 14.8 ± 1 | C#CCCCCCC [1-octyne] + CCCCn1cc[n+](C)c1.N#CN=C=[N-]
8.24 ± 0.56 | 8.61 ± 0.59 | 9.02 ± 0.62 | 9.42 ± 0.64 | 9.77 ± 0.67 | 10.2 ± 0.7 | C#CCCCCC [1-heptyne] + CCCCn1cc[n+](C)c1.N#CN=C=[N-]
2 ± 0.14 | 2.11 ± 0.14 | 2.22 ± 0.15 | 2.32 ± 0.16 | 2.43 ± 0.17 | 2.53 ± 0.17 | CCCC(C)=O [pentan-2-one] + CCCCn1cc[n+](C)c1.N#CN=C=[N-]
41.7 ± 2.9 | 40.1 ± 2.7 | 38.6 ± 2.6 | 37.3 ± 2.6 | 36.1 ± 2.5 | 34.9 ± 2.4 | CCCCC [pentane] + CCCCn1cc[n+](C)c1.N#CN=C=[N-]
91 ± 6.2 | 87.2 ± 6 | 83.9 ± 5.8 | 80.6 ± 5.5 | 77.8 ± 5.3 | 75.3 ± 5.2 | CCCCCCC [heptane] + CCCCn1cc[n+](C)c1.N#CN=C=[N-]
1.1 ± 0.07 | 1.11 ± 0.07 | 1.12 ± 0.07 | 1.13 ± 0.07 | 1.14 ± 0.07 | 1.15 ± 0.07 | CCCCO [butan-1-ol] + CCCCn1cc[n+](C)c1.N#CN=C=[N-]
137 ± 9 | 129 ± 9 | 123 ± 8 | 116 ± 8 | 111 ± 8 | 106 ± 7 | CCCCCCCC [octane] + CCCCn1cc[n+](C)c1.N#CN=C=[N-]
39 ± 2.7 | 38.5 ± 2.6 | 38.1 ± 2.6 | 37.7 ± 2.6 | 37.3 ± 2.6 | 37 ± 2.5 | C=CCCCCC [1-heptene] + CCCCn1cc[n+](C)c1.N#CN=C=[N-]
20.4 ± 1.4 | 20.5 ± 1.4 | 20.5 ± 1.4 | 20.5 ± 1.4 | 20.5 ± 1.4 | 20.6 ± 1.4 | CCCOCCC [dipropyl ether] + CCCCn1cc[n+](C)c1.N#CN=C=[N-]
207 ± 14 | 193 ± 13 | 181 ± 12 | 171 ± 12 | 162 ± 11 | 153 ± 11 | CCCCCCCCC [nonane] + CCCCn1cc[n+](C)c1.N#CN=C=[N-]
